Data published in the supplement of paper PMC11451515.

System: P12-Ichikawa
Assay: cell viability relative to DMSO control; higher = less cytotoxic
Conditions: 48 h
Summary of the method: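 Library compounds in DMSO were pin-dosed into 1536-well plates (5 μl) holding NOMO1 or SEM (500 cells/well) or P12-Ichikawa (1000 cells/well) leukemia cells, across an 11-point threefold series of 47 μM to 0.79 nM. Each cell line had been adapted for at least four passages in each medium. CellTiter-Glo One luminescence was read after 48 h at 37°C. Viability is the per-plate percentage relative to DMSO wells, with cell-free wells as background.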

[1] = HPLM + 10% dialyzed FBS, 0.000781 µM
[2] = HPLM + 10% dialyzed FBS, 0.00234 µM
[3] = HPLM + 10% dialyzed FBS, 0.00702 µM
[4] = HPLM + 10% dialyzed FBS, 0.0211 µM
[5] = HPLM + 10% dialyzed FBS, 0.0632 µM
[6] = HPLM + 10% dialyzed FBS, 0.19 µM
[7] = HPLM + 10% dialyzed FBS, 0.569 µM
[8] = HPLM + 10% dialyzed FBS, 1.71 µM
[9] = HPLM + 10% dialyzed FBS, 5.12 µM
[10] = HPLM + 10% dialyzed FBS, 15.4 µM
[11] = HPLM + 10% dialyzed FBS, 46.1 µM
[12] = RPMI 5 mM glucose + 10% FBS, 0.000781 µM
[13] = RPMI 5 mM glucose + 10% FBS, 0.00234 µM
[14] = RPMI 5 mM glucose + 10% FBS, 0.00702 µM
[15] = RPMI 5 mM glucose + 10% FBS, 0.0211 µM
[16] = RPMI 5 mM glucose + 10% FBS, 0.0632 µM
[17] = RPMI 5 mM glucose + 10% FBS, 0.19 µM
[18] = RPMI 5 mM glucose + 10% FBS, 0.569 µM
[19] = RPMI 5 mM glucose + 10% FBS, 1.71 µM
[20] = RPMI 5 mM glucose + 10% FBS, 5.12 µM
[21] = RPMI 5 mM glucose + 10% FBS, 15.4 µM
[22] = RPMI 5 mM glucose + 10% FBS, 46.1 µM
[23] = RPMI 5 mM glucose + 10% dialyzed FBS, 0.000781 µM
[24] = RPMI 5 mM glucose + 10% dialyzed FBS, 0.00234 µM
[25] = RPMI 5 mM glucose + 10% dialyzed FBS, 0.00702 µM
[26] = RPMI 5 mM glucose + 10% dialyzed FBS, 0.0211 µM
[27] = RPMI 5 mM glucose + 10% dialyzed FBS, 0.0632 µM
[28] = RPMI 5 mM glucose + 10% dialyzed FBS, 0.19 µM
[29] = RPMI 5 mM glucose + 10% dialyzed FBS, 0.569 µM
[30] = RPMI 5 mM glucose + 10% dialyzed FBS, 1.71 µM
[31] = RPMI 5 mM glucose + 10% dialyzed FBS, 5.12 µM
[32] = RPMI 5 mM glucose + 10% dialyzed FBS, 15.4 µM
[33] = RPMI 5 mM glucose + 10% dialyzed FBS, 46.1 µM

Structure (SMILES)	cell viability [1]	cell viability [2]	cell viability [3]	cell viability [4]	cell viability [5]	cell viability [6]	cell viability [7]	cell viability [8]	cell viability [9]	cell viability [10]	cell viability [11]	cell viability [12]	cell viability [13]	cell viability [14]	cell viability [15]	cell viability [16]	cell viability [17]	cell viability [18]	cell viability [19]	cell viability [20]	cell viability [21]	cell viability [22]	cell viability [23]	cell viability [24]	cell viability [25]	cell viability [26]	cell viability [27]	cell viability [28]	cell viability [29]	cell viability [30]	cell viability [31]	cell viability [32]	cell viability [33]
Oc1cc2c(cc1O)C1c3ccc(O)c(O)c3OCC1(O)C2 (centres undefined)	96.7%	106%	108%	112%	103%	113%	95.5%	118%	102%	111%	112%	104%	96.6%	102%	101%	101%	103%	102%	110%	118%	109%	108%	97.5%	93.8%	103%	102%	98.2%	107%	106%	100%	105%	104%	104%
CCOc1cc(/C=C2/C(=O)N(c3ccccc3)N=C2C)cc(Cl)c1OCC(=O)OC	85.7%	90.9%	87.7%	93.7%	84.6%	89.9%	91.1%	98.7%	88.3%	84.6%	83.3%	79.4%	89.3%	77.2%	85.7%	81%	92.8%	89.1%	86.6%	89.8%	80.9%	89.6%	90.1%	85.7%	92%	88%	83%	88.5%	85%	86.9%	86.9%	90.7%	86.5%
Cc1ccc(NC(=O)Nc2cc(C(F)(F)F)ccc2F)cc1Nc1ccc2c(c1)NC(=O)/C2=C\c1ccc[nH]1	122%	123%	133%	133%	131%	143%	139%	134%	128%	137%	70.3%	–	–	–	–	–	–	–	–	–	–	–	–	–	–	–	–	–	–	–	–	–	–
C=CCc1cc(OC)c(O)c(C(=O)NCCO)c1	106%	113%	109%	108%	106%	109%	99.4%	105%	103%	93%	98.2%	99.6%	112%	95.4%	104%	113%	100%	103%	95.4%	101%	93.7%	89.4%	98.9%	108%	104%	104%	103%	101%	105%	104%	84.4%	105%	94.1%
O=C(C[C@@H]1C/C=C\CCC(=O)O[C@H](c2ccccc2)CNC1=O)NCc1ccc(Cl)cc1	99.1%	110%	79.7%	117%	126%	122%	116%	119%	123%	116%	117%	95.1%	117%	70%	112%	115%	118%	128%	128%	115%	119%	123%	102%	115%	79.3%	120%	120%	120%	123%	119%	114%	120%	113%
COC1=CC(=CC=C1)C2=CC=C(NC(=O)/C3=C(/CCC3)C(O)=O)C(=C2)F	111%	113%	116%	110%	110%	113%	113%	106%	100%	80.1%	57.6%	116%	116%	118%	113%	109%	111%	105%	105%	96.6%	79.6%	51.7%	109%	120%	114%	105%	110%	110%	113%	106%	92.2%	69.6%	37.4%
CCCCCCCCOc1ccccc1C(=O)Nc1ccc(C(=O)OCC[N+](C)(CC)CC)cc1	93.6%	94.9%	98.2%	95.8%	97.7%	98.3%	89.1%	91.4%	85.6%	84.2%	71.8%	91.6%	102%	89.9%	107%	104%	104%	93.4%	91.3%	85.2%	87.7%	49%	89.3%	83.5%	88.2%	90.3%	95%	86.2%	91%	90.3%	78.6%	83.4%	46.4%
COc1ccc2c(OCc3nnc4ccc(-c5ccccc5)nn34)ccnc2c1	101%	116%	106%	104%	104%	97.5%	104%	95.9%	103%	103%	28.1%	115%	117%	123%	122%	114%	106%	112%	117%	106%	124%	122%	123%	118%	105%	111%	105%	105%	106%	103%	106%	109%	77.7%
O=[N+]([O-])c1ccc(Nc2ccccc2-c2ccccc2)c2nonc12	85.2%	90.1%	92.4%	91.2%	85.1%	90.4%	94.2%	96.7%	90.6%	91%	89.4%	83.6%	91.2%	86.4%	91.1%	90.6%	88%	93.4%	95.4%	90.7%	96.2%	86.5%	89.6%	87.1%	84.8%	92.3%	93.8%	97.6%	94.1%	90.7%	88.7%	95.2%	84.9%
C[C@H]1[C@H](O)O[C@@H]2O[C@@]3(C)CC[C@H]4[C@H](C)CC[C@@H]1[C@@]24OO3	91.4%	95%	99.8%	98.6%	91.4%	97.9%	101%	87.6%	54.7%	29.4%	22.5%	90.1%	92.9%	83.4%	94%	89.9%	91.2%	87.9%	70.4%	33.9%	16.8%	14.6%	82.7%	90.6%	87.1%	87.7%	87.2%	87%	84%	61.6%	36.5%	26.2%	24.3%
CCCCOc1ccc(CC(=O)NO)cc1	108%	108%	108%	110%	111%	102%	102%	105%	107%	97.5%	67.7%	115%	115%	102%	116%	109%	111%	105%	101%	100%	96.4%	59.1%	114%	109%	113%	108%	110%	104%	108%	106%	98.3%	92.4%	59.2%
CCOC(CN1C(=O)[C@](CC(=O)Nc2ccc(C)cc2)(NC(=O)Nc2ccc(C)cc2)c2ccccc21)OCC	103%	105%	109%	111%	105%	109%	115%	108%	111%	111%	19.8%	102%	107%	101%	108%	105%	105%	105%	117%	101%	106%	34.8%	100%	104%	93.7%	107%	102%	104%	116%	96.3%	102%	98%	37.6%
C[C@]12CC[C@@H]3c4ccc(O)cc4CC[C@H]3[C@@H]1CC[C@@H]2O	116%	111%	113%	106%	112%	116%	105%	102%	100%	88.9%	27.1%	118%	112%	115%	115%	105%	111%	112%	108%	107%	105%	20.9%	108%	111%	109%	101%	103%	102%	102%	94.3%	94.1%	75.5%	28.6%
CCCc1nc2c(C)cc(-c3nc4ccccc4n3C)cc2n1Cc1ccc(-c2ccccc2C(=O)O)cc1	123%	124%	122%	125%	126%	135%	130%	127%	123%	133%	123%	–	–	–	–	–	–	–	–	–	–	–	–	–	–	–	–	–	–	–	–	–	–
CO[C@@H]1[C@@H](OC(N)=O)[C@@H](O)[C@H](OC2=CC=C3\C(=C(NC(=O)C4=CC=C([O-])C(=C4)CC=C(C)C)/C(=O)OC3=C2C)O)OC1(C)C	118%	108%	119%	115%	111%	106%	110%	104%	102%	100%	100%	107%	108%	124%	110%	114%	110%	113%	110%	108%	94.2%	97.8%	109%	105%	109%	110%	105%	106%	108%	109%	98%	98.5%	88.3%
FC1=CC=C(CN2\C=C/C=C(/C(=O)N[C@@H](COC3=CC4=C(NC(=O)N4)C=C3)C5=CC=CC=C5)C2=O)C=C1F	89.1%	97.2%	98.9%	96.2%	104%	98.8%	97.3%	89.2%	76.4%	70.1%	64.7%	82.9%	90.2%	85.9%	86.8%	88.9%	88.9%	86.9%	72.6%	53.9%	50.5%	44.8%	81.6%	89.4%	90.5%	94.6%	89.3%	94.5%	79.9%	76.6%	58.5%	54.2%	45.4%
